“Also recorded” adds a separate entry of the source. Positions of bridges follow the written chain, without caps; N, C: chain ends. Non-standard residues stand in square brackets, D forms with d. Residues, ends and D or L forms follow the SMILES beside them. ξ: configuration not given here. Thr(3ξ) = CC(O)[C@H](N)C(=O)O
Key:
[1] = test system: blood-brain barrier (BBB); test: In vivo brain delivery of IRdye800CW-IgG mAb, NIRF quantification in brain homogenates; conditions: C57BL/6 mice
Protocol: The activity of each peptide in enhancing blood-brain barrier (BBB) penetration was evaluated by delivering IRdye800CW donkey anti-goat IgG mAb in C57BL/6 mice; the amounts of mAb in the brain were determined using NIRF imaging. Each group contained 3 mice per group (n=3) with a mixture of male and female mice, selected randomly for each arm of the study. The injection solution was prepared by adding 600 μL PBS into 0.5 mg lyophilized IgG mAb; then, approximately 1.5 mg lyophilized peptide was added into the mixture yielding the injectable formulation. A 100 μL solution of a mixture containing IgG mAb (21.6 nmol/kg) along with 13 μmol/kg peptide of the present technology was administered via tail vein. As a control, 100 μL of IgG mAb alone was administered via i.v. route. After the delivered molecules had been circulating for 15 min, the mice were sacrificed; then, a mixture of PBS with 0.5% Tween20 was administered for cardiac perfusion to remove the blood and […] molecules into the brain microvessels. The brain and other organs such as lung, heart, spleen, liver, and kidney were harvested and rinsed with PBS. The isolated organs were scanned with Odyssey® CLx for mAb quantification.
The brain deposition of IgG mAb was also quantified by NIRF imaging in brain homogenates. The isolated brains were mechanically homogenized in 2.0 mL of PBS. To make the standard solutions, IRDye800CW IgG mAb stock solution (70 μg/mL) was prepared; it was then diluted with various amounts of PBS to make six different mAb concentrations. To generate a calibration curve, the brain homogenate (200 μL) was aliquoted out to a 96-well plate. 10 μL of each concentration of IgG mAb was added to three different wells of blank brain homogenates. The standard spiked homogenates were at a range of 10-200 ng/mL IgG mAb in brain homogenate. The wells were scanned using the Odyssey® CLx scanner, and the signal intensities vs. concentrations of mAb per gram of brain were used to generate a calibration curve.
(§1) The BBB modulatory activities of ADTC5 and HAV6 to enhance brain delivery of IRdyeR800CW-labeled lysozyme, albumin, IgG mAb, and fibronectin were compared in C57BL/6 mice. The proteins with or without 13 μmol/kg HAV6 or ADTC5 were administered via tail vein injection. For lysozyme, the delivered doses were 21.6 and 54 nmol/kg. For albumin, IgG mAb, and fibronectin, the dose used was 21.6 nmol/kg. Fifteen minutes after IgG mAb administration with or without a peptide of the present technology, the animals were sacrificed and PBS with 0.5% Tween-20 was administered for cardiac perfusion to remove the remaining protein in the BBB microvessels. The brain and other organs such as lung, heart, spleen, liver and kidney were harvested and rinsed with PBS. Protein depositions in the brain and other organs were quantified by NIRF imaging using an Odyssey CLx NIRF scanner.
(§2) A second quantification method was done using brain homogenates. In this case, the brains were homogenized in 2.0 mL PBS by mechanical disruption and 200 μL of homogenized brain (n=8) was aliquoted to a 96-well plate followed by quantification using the Odyssey CLx scanner. The signal intensity was compared to calibration curve and normalized to brain weight and homogenate volume.

SJL/elite EAE mice = test: Suppression of EAE relapse, clinical scores; format: in vivo; conditions: BDNF 5.71 nmol/kg and/or ADTC5 10 μmol/kg i.v.
Protocol: EAE Mouse Model: EAE disease in animals (5-8-week-old SJL/elite female mice, Charles River) was stimulated by injecting 200 μg of PLP139-151 peptide in a 0.2 mL emulsion containing equal volumes of PBS and complete Freund's adjuvant (CFA) with killed mycobacterium tuberculosis strain H37RA (Difco, Detroit, Mich.; final concentration 4 mg/mL) as described in Kobayashi, N.; Kiptoo, P.; Kobayashi, H.; Ridwan, R.; Brocke, S.; Siahaan, T. J. Prophylactic and therapeutic suppression of experimental autoimmune encephalomyelitis by a novel bifunctional peptide inhibitor. Clin Immunol 2008, 129, (1), 69-79 and Kobayashi, N.; Kobayashi, H.; Gu, L.; Malefyt, T.; Siahaan, T. J. Antigen-specific suppression of experimental autoimmune encephalomyelitis by a novel bifunctional peptide inhibitor. J Pharmacol Exp Ther 2007, 322, (2), 879-86. Briefly, […] of PLP/CFA emulsion was administered to four different regions above the shoulders and the flanks on Day 0 followed by intraperitoneal injection of 200 ng of pertussis toxin (List Biological Laboratories, Campbell, Calif.) on Days 0 and 2. Clinical scores that reflect the disease progression were determined using an 11-point scale with 0.5 increments ranging from 0 to 5; 0 being no apparent disease and 5 being moribund. On Day 21, mice were randomly separated into […]: (i) BDNF (5.7 nmol/kg)+ADTC5 (10 μmol/kg; n=7), (ii) BDNF alone (5.71 nmol/kg, n=6), (iii) ADTC5 alone (10 μmol/kg; n=5), and (iv) vehicle (n=5). All mice received 8 intravenous injections every 4 days beginning on Day 21. The mice were euthanized via CO2 inhalation on Day 55. Area under the curve (AUC) calculations were used to compare clinical scores across groups; AUC calculations were performed using the trapezoid rule from Days 21 to 55.

[2] = test system: blood-brain barrier (BBB); test: Brain delivery of IRdye800CW-IgG mAb in SJL/elite mice, whole brain NIRF imaging; format: in vivo; conditions: IgG mAb 26.8 nmol/kg i.v. alone (n=4) or with ADTC5 13 μmol/kg (n=5), 15 min
Protocol: Brain Delivery IRdye800CW-labeled IgG mAb using ADTC5 in SJL/elite Mice. For initial evaluation of whether ADTC5 can deliver proteins into the brain, IRdye800CW donkey-anti-goat IgG mAb was administered via i.v. with and without ADTC5 peptide in 5-8-week-old SJL/elite mice. Two groups of healthy SJL/elite mice were injected with (a) a mixture of IgG mAb (26.8 nmol/kg) and ADTC5 peptide (13 μmol/kg) (n=5) and (b) IgG mAb alone (26.8 nmol/kg) (n=4). After 15 min in the systemic circulation, the mice were euthanized using CO2 inhalation followed by brain perfusion using PBS to remove the remaining protein in the BBB microvasculature. Next, the brains were isolated followed by NIRF imaging using Licor Odyssey CLx (Licor, Lincoln, Nebr.). Eight optical sections were taken at 0.5 mm increments beginning from the bottom surface of the brain to a depth of 4 mm. The optical sections were summed to yield a fluorescence intensity value per each brain.

[3] = test system: blood-brain barrier (BBB); test: In vivo brain delivery of IRdye800CW-lysozyme (15 kDa); set-up: species or system C57BL/6 mice
Protocol: Preparation of Stock and Standard Curves. The stock solution for IRDye800CW protein (i.e., lysozyme, 70 μg/mL) was prepared and stored at −80° C. The stock solution was later diluted with PBS to make the required standard solutions. To produce a standard calibration curve, 200 μL of blank brain homogenates was spiked with 10 μL standard solutions of various concentrations to yield a linear range from 0.5 to 50 ng/mL. The same method was employed for the sample's quality control (QC).
as §1, §2
(§3) Brain Perfusion. After euthanasia using CO2 chamber, mice were immediately subjected to cervical dislocation followed by removal of IRdye800CW-labeled protein from the brain capillaries using perfusion solution. In this case, a solution containing PBS with 0.2% Tween-20 was transcardially perfused to remove the remaining protein molecules in the brain endothelial microvessels. After perfusion, the brain was removed from the skull and subjected to capillary depletion.

[4] = test system: blood-brain barrier (BBB); test: In vivo brain delivery of IRdye800CW-albumin (65 kDa); conditions: IRdye800CW-albumin 21.6 nmol/kg i.v. alone or with 13 μmol/kg peptide; C57BL/6 mice
Protocol: as §1, §2, §3

[5] = test system: blood-brain barrier (BBB); test: In vivo brain delivery of IRdye800CW-fibronectin (220 kDa); set-up: species or system C57BL/6 mice
Protocol: as §1, §2, §3

[6] = IgG mAb 21.6 nmol/kg + 13 μmol/kg peptide i.v.

CC(=O)N[C@H]1CSSC[C@@H](C(N)=O)NC(=O)[C@H](C(C)C)NC(=O)[C@@H]2CCCN2C(=O)[C@@H]2CCCN2C(=O)[C@H](C(C)O)NC(=O)[C@H](CC(=O)O)NC1=O (some centres unmarked) [ADTC5, cyclo(1,7)acetyl-CDTPPVC-NH2] (Ac-CD[Thr(3ξ)]PPVC-NH2; disulfide 1-7)
average amount of IgG mAb in the brain ([1]; IRdye800CW-IgG mAb 21.6 nmol/kg i.v. alone or with 13 μmol/kg peptide, 15 min circulation, n=3): 13.3±0.7 pmol/g brain
brain delivery of IgG mAb compared to control (IgG mAb alone) [1, 6]: significantly better than in the PBS control; also recorded: significant difference
enhancement of mAb brain deposition relative to control [1, 6]: about three times that of control
locomotion / paralysis observed (SJL/elite EAE mice; 8 injections): partial or full hind leg paralysis and full tail paralysis
EAE clinical body scores (SJL/elite EAE mice; 8 injections every 4 days from day 21, compared with other groups/vehicle): no significant difference
whole brain NIRF signal of IRDye800CW-IgG mAb [2]: significantly higher signal intensity
amount of lysozyme in the brain ([3]; IRdye800CW-lysozyme 54 nmol/kg i.v. alone or with 13 μmol/kg peptide, C57BL/6 mice): 37.8±7.1 pmol/g brain
brain delivery of lysozyme compared to lysozyme alone ([3]; lysozyme 21.6 nmol/kg with 13 μmol/kg peptide): no significant improvement
amount of albumin in the brain [4]: 40.7±7.4 pmol/g brain
NIRF signal of fibronectin in brain homogenates ([5]; IRdye800CW-fibronectin 21.6 nmol/kg i.v. alone or with ADTC5 13 μmol/kg): 35.498±3.001 ×10^3 A.U.
brain delivery of 220 kDa fibronectin ([5]; fibronectin 21.6 nmol/kg with ADTC5 13 μmol/kg vs fibronectin alone): did not enhance
